Measured values reported in patent US8350039B2, “Substituted isoquinoline derivatives, pharmaceutical compositions, and methods of use as beta-secretase inhibitors” (High Point Pharmaceuticals, LLC, priority 2009, dated 2013).

Legend:
BACE-1 enzyme = molecular target: T1, BACE-1 enzyme (Homo sapiens, UniProt P56817); assay: BACE Fluorescence Resonance Energy Transfer (FRET) Assay; format: biochemical; conditions: peptide substrate, pH 4-4.5, 30 min pre-incubation, 1.5 hours at room temperature
T1 construct: purchased R & D Systems 931AS
Method: BACE Fluorescence Resonance Energy Transfer (FRET) Assay
In the following assay, the proteolytic activity of BACE is measured by observing cleavage of a fluorescent group from a peptide substrate containing a rhodamine fluorescent donor and a quenching acceptor.
The inhibitory activity of compounds of Formula (I) may be compared to a statine derived control inhibitor STA200 (MP Biomedical Cat. #STA-200). The cleavage reaction occurs when a BACE-1 substrate (Invitrogen, Cat. #P2986) was added to a reaction mixture containing BACE-1 enzyme (R & D Systems, Cat. #931AS) and allowed to proceed for 1.5 hours. Fluorescence, used as a marker of BACE activity, is monitored using 540 nm excitation and 585 nm emission wavelengths (Envision, Perkin Elmer).
A typical assay reaction contains BACE-1 enzyme—in assay buffer (50 mM sodium acetate, pH 4-4.5, 0.01% CHAPS (3-[(3-Cholamidopropyl)dimethylammonio]-1-propanesulfonate), 0.0125% TritonX-100, 0.006% EDTA) which is pre-incubated for 30 minutes with test compound in 7.5% DMSO. The reaction is initiated with the addition of BACE-1 substrate in assay buffer and allowed to proceed for 1.5 hours at room temperature. Assays are conducted in black 384-well microtiter plates and scanned at room temperature using 540 nm excitation and 585 nm emission wavelengths.
A test compound's activity is reported as the IC50.

[1] = system: HEK293 cells stably expressing wildtype human APP695 protein (HEK-APPwt cells); assay: Aβ Cell Based Assay (Aβ1-40 secretion, ELISA); conditions: reduction of Aβ1-40 secretion from HEK-APPwt cells, 6 hours incubation, DAPT as 100% inhibition reference
Method: Aβ Cell Based Assay Procedure
In the following assay, the proteolytic activity of BACE in cells exposed to varying concentrations of a compound of interest is measured by observing the amount of Aβ1-40 secreted from HEK293 cells (Human Embryonic Kidney epithelial cell line) stably expressing wildtype human APP695 protein (HEK-APPwt cells).
HEK-APPwt cells were grown in high glucose DMEM (Dulbecco's Modified Eagles Medium SIGMA Cat. #D5796) supplemented with 25 mM HEPES (4-(2-hydroxyethyl)-1-piperazineethanesulfonic acid) (pH 7.4) (Invitrogen Cat. #15630-114), 0.1 mM NEAA (Non-essential Amino Acids) (BioWhittaker Cat. #13-114E), 10% fetal bovine serum (SIGMA Cat. #F4135) and 250 μg/mL hygromycin (Invitrogen Cat. #10687-010) in T-225 flasks at 37° C. with 5% CO2 and humidity control.
Test compounds were initially prepared in DMSO and diluted with DMEM media containing 2% FBS (Fetal bovine serum). Ten standard compound solutions were prepared having a range of concentrations. The standard compound solutions were used to determine the EC50 of the test compound. The range of concentrations chosen may depend on the compound's predicted potency.
To prepare the cells for the assay, a flask containing HEK-APPwt cells were trypsinized briefly (1 mL trypsin), and once the cells detached, 4 mL of 10% FBS-DMEM was added to the flask. The detached cells were centrifuged at 900 rpm for 5 min to form a pellet.
The HEK-APPwt cell pellet was re-suspended with 10 mL DMEM media containing 2% FBS. 80 μL of the cell suspension was added to each well of a 96-well cell culture plate to give 100×10^4 cells/mL. 10 μL of a standard compound solution was added to each well of the 96-well cell culture plate followed by 10 μL of Alamar blue solution. The cells were incubated at 37° C. in a 5% CO2 incubator for 6 hours.
At the end of the incubation, the plates were removed from incubator, and the supernatant was collected. Aβ1-40 concentration in the medium was measured by using a commercial Aβ1-X ELISA kit (IBL, Japan Cat. #27729). Briefly, the ELISA plates were coated with an anti-human Aβ (N)(82E1) mouse IgG monoclonal antibody. A horseradish peroxidase conjugated anti-human Aβ11-28 mouse IgG monoclonal antibody was used for detection. The cell culture supernatant was diluted with EIA buffer+protease inhibitors (kit buffer containing protease inhibitors (1 mL PI/30 mL buffer)). A 100 μL aliquot of the diluted supernatant was added to each well of the ELISA plate and incubated for 6 hrs at 4° C. The ELISA plate was washed 8 times with phosphate buffered saline (PBS) containing 0.05% Tween 20.
A 100 μL of detection antibody was then added and incubated for 1 hour at 4° C. The plate was washed 8 times with PBS buffer containing 0.05% Tween 20 followed by addition of 100 μL of the chromogen tetramethylbenzidine (TMB). The plate was incubated in the dark at room temperature for about 30 min and a stop solution (1N H2SO4) was added.
The intensity of the color developed was measured at 450 nm. The optical density at 450 nm (OD450) is proportional to the concentration of human Aβ1-40 secreted by the cell. As a reference, N—[N-(3,5-difluorophenacetyl-L-alanyl)]-S-phenylglycine t-butyl ester (DAPT, a γ-secretase inhibitor) was used to indicate 100% inhibition of BACE activity. Thus, the assay measures the ability of a compound of interest to reduce Aβ1-40 secretion. Compound potency was reported as the EC50 by calculating the percent inhibition at all concentration levels and the data were fit with non-linear curve fitting algorithm using in GraphPad Prism.

T1 sequence (P56817 46-457 limits assumed): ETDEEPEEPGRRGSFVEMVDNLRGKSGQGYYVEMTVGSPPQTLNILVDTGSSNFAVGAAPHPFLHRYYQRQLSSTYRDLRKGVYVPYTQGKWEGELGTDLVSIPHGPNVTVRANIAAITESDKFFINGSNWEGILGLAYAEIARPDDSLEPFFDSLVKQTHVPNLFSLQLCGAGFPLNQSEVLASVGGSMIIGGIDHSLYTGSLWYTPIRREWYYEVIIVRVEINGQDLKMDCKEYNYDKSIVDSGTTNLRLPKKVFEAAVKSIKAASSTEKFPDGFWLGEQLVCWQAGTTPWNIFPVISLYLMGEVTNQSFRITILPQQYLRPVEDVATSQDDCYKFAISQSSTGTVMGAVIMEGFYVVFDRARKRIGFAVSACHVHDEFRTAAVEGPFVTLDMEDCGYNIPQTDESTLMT

| IC50 (BACE-1 enzyme) | Structure (SMILES) | EC50 [1] |
| --- | --- | --- |
| 0.085 µM | O=C(Nc1nc2cc(OCc3ccccc3)ccc2[nH]1)c1cc2ccccc2cn1 [Example 1, Isoquinoline-3-carboxylic acid (5-benzyloxy-1H-benzoimidazol-2-yl)-amide] | 0.12 µM |
| 0.86 µM | O=C(Nc1nc2cc(OCc3ccc(F)cc3F)ccc2[nH]1)c1cc2ccccc2cn1 [Example 5, Isoquinoline-3-carboxylic acid [5-(2,4-difluoro-benzyloxy)-1H-benzoimidazol-2-yl]-amide] | 1.2 µM |
| 0.26 µM | O=C(Nc1nc2cc(OCCC3CCCC3)ccc2[nH]1)c1cc2ccccc2cn1 [Example 6, Isoquinoline-3-carboxylic acid [5-(2-cyclopentyl-ethoxy)-1H-benzoimidazol-2-yl]-amide] | 0.16 µM |
| 0.47 µM | O=C(Nc1nc2cc(OCCCc3ccccc3)ccc2[nH]1)c1cc2ccccc2cn1 [Example 8, Isoquinoline-3-carboxylic acid [5-(3-phenyl-propoxy)-1H-benzoimidazol-2-yl]-amide] | 1.2 µM |
| 0.38 µM | O=C(Nc1nc2cc(N(Cc3ccccc3)Cc3ccccc3)ccc2[nH]1)c1cc2ccccc2cn1 [Example 12, Isoquinoline-3-carboxylic acid (5-dibenzylamino-1H-benzoimidazol-2-yl)-amide] | 2.3 µM |

Further lines, the compound ahead of its results:

| Structure (SMILES) | IC50 (BACE-1 enzyme) | EC50 [1] |
| --- | --- | --- |
| O=C(Nc1nc2cc(OCCc3ccccc3)ccc2[nH]1)c1cc2ccccc2cn1 [Example 2, Isoquinoline-3-carboxylic acid (5-phenethyloxy-1H-benzoimidazol-2-yl)-amide] | 0.19 µM | 2 µM |
| O=C(Nc1nc2cc(OCc3ccc(C(F)(F)F)cc3)ccc2[nH]1)c1cc2ccccc2cn1 [Example 3, Isoquinoline-3-carboxylic acid [5-(4-trifluoromethyl-benzyloxy)-1H-benzoimidazol-2-yl]-amide] | 0.95 µM | 0.55 µM |
| O=C(Nc1nc2cc(OCc3ccc(F)cc3)ccc2[nH]1)c1cc2ccccc2cn1 [Example 4, Isoquinoline-3-carboxylic acid [5-(4-fluoro-benzyloxy)-1H-benzoimidazol-2-yl]-amide] | 0.1 µM | 0.16 µM |
| O=C(Nc1nc2cc(N3CCC(c4ccccc4)CC3)ccc2[nH]1)c1cc2ccccc2cn1 [Example 7, Isoquinoline-3-carboxylic acid [5-(4-phenyl-piperidin-1-yl)-1H-benzoimidazol-2-yl]-amide] | 0.1 µM | 1.4 µM |
| O=C(Nc1nc2cc(-c3ccccc3)ccc2[nH]1)c1cc2ccccc2cn1 [Example 9, Isoquinoline-3-carboxylic acid (5-phenyl-1H-benzoimidazol-2-yl)-amide] | 0.19 µM | 1.09 µM |
| COc1cccc(-c2ccc3[nH]c(NC(=O)c4cc5ccccc5cn4)nc3c2)c1 [Example 10, Isoquinoline-3-carboxylic acid [5-(3-methoxy-phenyl)-1H-benzoimidazol-2-yl]-amide] | 0.16 µM | 1 µM |
| O=C(Nc1nc2cc(NCc3ccccc3)ccc2[nH]1)c1cc2ccccc2cn1 [Example 11, Isoquinoline-3-carboxylic acid (5-benzylamino-1H-benzoimidazol-2-yl)-amide] | 0.13 µM | 0.6 µM |
